Test in all cases: NCI-60 cell line screen, 48 h
The test system of experiment [1] is SF-295 CNS.
Experiment [2] relates to HT29 colon.
In experiment [3] the test system is UACC-257 melanoma.
Experiment [4] deals with SF-539 CNS.
For experiment [5], the system named is NCI-H460 lung.
Experiment [6] relates to SF-268 CNS.
The subject of experiment [7] is OVCAR-8 ovarian.
Experiment [8] has as its system HCT-116 colon.
Experiment [9] has as its system A498 renal.
Experiment [10] has as its system NCI-H226 lung.

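Results reflect a 48-hour exposure of cells in 96-well plates to compound at five concentrations. Abbreviation: GI50, concentration required for 50% inhibition of growth. At the TGI there is no net growth.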 Some results are limits rather than exact numbers.

For the molecule `CC(=O)Nc1[nH]c(=O)[nH]c(=O)c1N(C(C)=O)C(C)=O`, the TGI in experiment [1], in [2], in [3], in experiment [4], in experiment [5] and in experiment [6] was above 100 µM in each case. Moreover, the TGI in [7], in [8], in experiment [9] and in experiment [10] was above 100 µM in each case.

For the molecule `O=C(Nc1ccc(-c2nc3ccc(NC(=O)c4ccc(Cl)cc4)cc3[nH]2)cc1)c1ccc(Cl)cc1`, the GI50 is 0.23 µM in experiment [1]; 2.11 µM in experiment [2]; 11.5 µM in [3]; 0.0709 µM in experiment [4]; 1.79 µM in [5]; 5.78 µM in experiment [6]. Besides, the GI50 is 1.73 µM in experiment [7], 2.71 µM in [8], 3.56 µM in [9] and 15.1 µM in [10]. The TGI in [1] is 8.77 µM; in experiment [2], 6.89 µM; in experiment [3] it was 24.1 µM; in experiment [4], 6.22 µM; in experiment [5], 4.03 µM; in experiment [6], 18.5 µM. The TGI in experiment [7] was determined as 6.93 µM; in experiment [8] it was 10.8 µM; in [9], 16.8 µM; in experiment [10], 31.8 µM.

On to `CCNC1=CC(=O)c2ncccc2C1=O`, for which the GI50 in experiment [1] is 1.23 µM; in experiment [2], 2.82 µM; in experiment [3], 1.42 µM; in [4], 1.89 µM; in [5] it was 0.439 µM; in experiment [6] it was 3.13 µM. In addition, the GI50 in experiment [7] was 3.04 µM; in experiment [8] it was 3 µM; in [9] it was 1.24 µM; in [10] it was 1.85 µM. Further, the TGI in experiment [1] came to 2.56 µM; in [2], 6.59 µM; in experiment [3], 3 µM; in [4] it was 3.76 µM; in experiment [5], 2 µM; in [6] it was 17.3 µM. Moreover, the TGI was 14.2 µM in experiment [7], 9.7 µM in experiment [8], 2.87 µM in experiment [9] and 4.42 µM in [10].

Turning to `CC(C)=CCC[C@](C)(O)[C@H]1CC[C@]2(C)[C@@H]1CC[C@@H]1[C@@]3(C)CC[C@H](OC(=O)CCC(=O)O)C(C)(C)[C@@H]3CC[C@]12C`, the GI50 in experiment [1] is 28.6 µM; in experiment [2], 29.2 µM; in [3], 36.9 µM; in experiment [4] it was 19.7 µM; in [5] it was 36.4 µM; in experiment [6], 29.9 µM. For the same molecule, the GI50 is 35.5 µM in experiment [7], 56.5 µM in experiment [8], 80.4 µM in [9] and 16.7 µM in experiment [10]. Further, the TGI was 92.5 µM in experiment [1]; above 100 µM in [2]; above 100 µM in experiment [3]; 57.8 µM in experiment [4]; above 100 µM in experiment [5]; above 100 µM in experiment [6]. Moreover, the TGI was above 100 µM in experiment [7], above 100 µM in [8], above 100 µM in [9] and 40.3 µM in [10].

For the molecule `CCCC/C(C)=N/NC(N)=S`, the TGI in [1], in [2], in experiment [3], in experiment [4], in experiment [5] and in [6] was above 100 µM throughout. The TGI in experiment [7], in experiment [8], in experiment [9] and in [10] was above 100 µM each time.

For `Cc1[nH]nc(C(=O)N/N=C/c2cccs2)c1N=NN(C)C`, the TGI is 45.2 µM in [1]; 17.4 µM in [2]; 72.4 µM in [3]; 36.5 µM in [4]; 34.7 µM in [5]; 37.1 µM in experiment [6]. In addition, the TGI is 33.1 µM in experiment [7], above 100 µM in experiment [8], 91 µM in experiment [9] and 70.1 µM in experiment [10].

On to `COc1cc([N+](=O)[O-])c2ncccc2c1O`, for which the GI50 in experiment [1] is 2.29 µM; in experiment [2], 2.26 µM; in [3] it was 2.56 µM; in experiment [4] it was 2.59 µM; in experiment [5], 2.86 µM; in experiment [6], 9.79 µM. Besides, the GI50 in experiment [7] is 8.71 µM; in experiment [8], 4.26 µM; in experiment [9] it was 1.31 µM; in [10] it was 2.01 µM. For the same molecule, the TGI in [1] is 6.77 µM; in experiment [2], 22.9 µM; in experiment [3], 7.65 µM; in experiment [4] it was 9.41 µM; in [5] it was above 100 µM; in [6], 67.1 µM. In addition, the TGI in [7] is above 100 µM; in experiment [8] it was 82.6 µM; in experiment [9] it was 4.25 µM; in experiment [10], 6.27 µM.

Turning to `CN(NC(=O)/C(=C/C=C/c1ccccc1)NC(=O)c1ccccc1)C1=C(Cl)C(=O)[N+](c2ccccc2)=CC1`, the TGI is 81.5 µM in experiment [1]; above 100 µM in [2]; above 100 µM in experiment [3]; 38 µM in [4]; above 100 µM in [5]; 70.4 µM in experiment [6]. The TGI was 40.3 µM in [7], 45.7 µM in experiment [8], above 100 µM in experiment [9] and 37.7 µM in [10].

For the molecule `C[P+](C)(CC(F)(F)F)c1ccccc1`, the TGI in experiment [1], in [2], in experiment [3], in [4], in [5] and in experiment [7] was above 100 µM throughout. Further, the TGI in experiment [8], in experiment [9] and in [10] was above 100 µM throughout.

Regarding `Cc1cc(I)cc(CN(C)CCCCN2CCCC2)c1O`, the GI50 was 13.2 µM in [1]; 5.7 µM in experiment [2]; 16.6 µM in experiment [3]; 14.7 µM in [4]; 17.3 µM in experiment [5]; 18.1 µM in experiment [6]. Further, the GI50 in experiment [7] was 37.2 µM; in [8], 13.1 µM; in experiment [9], 13.4 µM; in experiment [10], 30 µM. The TGI in experiment [1] turned out to be 28.6 µM; in [2], 22 µM; in experiment [3] it was 32.8 µM; in experiment [4] it was 28.7 µM; in experiment [5], 45.9 µM; in experiment [6], 55.7 µM. In addition, the TGI in [7] was above 100 µM; in experiment [8], 40 µM; in [9], 30.2 µM; in [10], above 100 µM.

`C/C(=N\N=C(N)N)c1sc(-c2nc(C)c(/C(C)=N/N=C(N)N)s2)nc1C`: the TGI in experiment [1], in experiment [2], in [3], in experiment [4], in experiment [5] and in experiment [6] was above 100 µM each time. In addition, the TGI in [7], in [8], in [9] and in experiment [10] was above 100 µM in each case.

For `O=C(O)CNS(=O)(=O)c1ccc(NC(=O)c2cccc([N+](=O)[O-])c2)cc1`, the TGI in experiment [1], in experiment [2], in experiment [3], in experiment [4], in [5] and in experiment [6] was above 100 µM each time. In addition, the TGI in [7], in experiment [9] and in [10] was above 100 µM throughout.

Turning to `NC(=O)Cn1c(=O)[nH]c(=O)c2[nH]cnc21`, the TGI in [2], in experiment [3], in [4], in [5], in [6] and in experiment [7] was above 100 µM each time. Further, the TGI in experiment [8], in experiment [9] and in [10] was above 100 µM in each case.

With `CC(C)(C)c1ccc(C(O)(c2ccc(C(C)(C)C)cc2)c2ccc(C(C)(C)C)cc2)cc1`, the TGI in experiment [1], in experiment [2], in experiment [4], in experiment [5], in experiment [6] and in [7] was above 100 µM throughout. Moreover, the TGI in experiment [8], in experiment [9] and in experiment [10] was above 100 µM each time.

`C=C1C(=O)O[C@H]2[C@H](OC(C)=O)[C@@H](C)CCC/C(C)=C/CC[C@]3(CO3)[C@H](O)C[C@@H]12`: the GI50 was 19.7 µM in [1]; 3.23 µM in experiment [2]; 12.4 µM in experiment [3]; 3.2 µM in experiment [4]; 5.35 µM in [5]; 3.93 µM in experiment [6]. For the same molecule, the GI50 in experiment [7] was 3.06 µM; in [9], 16.9 µM; in [10], 16.3 µM. The TGI in experiment [1] is 49.3 µM; in experiment [2], 11.5 µM; in [3], 26.1 µM; in [4], 9.27 µM; in experiment [5] it was 17.5 µM; in experiment [6], 13.6 µM. Besides, the TGI in experiment [7] was 10.8 µM; in [9] it was 33.4 µM; in experiment [10] it was 38.6 µM.

Regarding `COc1cc(C(N)=O)c(OC)c(OC)c1OC`, the TGI in [1], in [2], in [4], in experiment [5], in [6] and in [7] was above 100 µM each time. Further, the TGI in experiment [8], in [9] and in [10] was above 100 µM each time.

Source of the values: PubChem BioAssay (NCI).
